Results on 23 compounds are retold here after US10173982B2, “Picolinamides as fungicides” (Dow AgroSciences LLC, priority 2016, dated 2019).

Structures are written as SMILES. Where two headings read alike, the source gives them in different places.

The subject of one assay is Puccinia triticina. In words: Fungicidal activity: wheat brown rust (PUCCRT), percent disease control on wheat seedlings. The assay is classed as in vivo. Conditions: for pest or weed control at 100 ppm / pest or weed control at 121.5 g/ha: Puccinia triticina; for pest or weed control at 100 ppm / PUCCRT 3DC disease control rating / PUCCRT 1DP disease control rating: HV (high volume) activity at 100 ppm; for pest or weed control at 121.5 g/ha: LV (low volume) activity at 121.5 g/H. The procedure: Technical grades of materials were dissolved in acetone, which were then mixed with nine volumes of water containing 110 ppm Triton X-100. The fungicide solutions were applied onto wheat seedlings using an automated booth sprayer to run-off. All sprayed plants were allowed to air dry prior to further handling. All fungicides were evaluated using the aforementioned method for their activity vs. all target diseases, unless stated otherwise. Wheat leaf blotch and brown rust activity were also evaluated using track spray applications, in which case the fungicides were formulated as EC formulations, containing 0.1% Trycol 5941 in the spray solutions. Wheat plants (variety Yuma) were grown from seed in a greenhouse in 50% mineral soil/50% soil-less Metro mix until the first leaf was fully emerged, with 7-10 seedlings per pot. These plants were inoculated with an aqueous spore suspension of Puccinia triticina either prior to or after fungicide treatments. After inoculation the plants were kept in a dark dew room at 22° C. with 100% relative humidity overnight to permit spores to germinate and infect the leaf. The plants were then transferred to a greenhouse set at 24° C. for disease to develop. Fungicide formulation, application and disease assessment followed the procedures as described in the Example A. Results of the evaluations are shown below in Table 4.

A further assay relates to Zymoseptoria tritici. As to the kind of experiment: Fungicidal activity: leaf blotch of wheat (SEPTTR), percent disease control on wheat seedlings. The format is in vivo. Conditions: for pest or weed control at 100 ppm / pest or weed control at 121.5 g/ha: Zymoseptoria tritici; for pest or weed control at 100 ppm / SEPTTR 1DP disease control rating / SEPTTR 3DC disease control rating: HV (high volume) activity at 100 ppm; for pest or weed control at 121.5 g/ha: LV (low volume) activity at 121.5 g/H. The procedure: Technical grades of materials were dissolved in acetone, which were then mixed with nine volumes of water containing 110 ppm Triton X-100. The fungicide solutions were applied onto wheat seedlings using an automated booth sprayer to run-off. All sprayed plants were allowed to air dry prior to further handling. All fungicides were evaluated using the aforementioned method for their activity vs. all target diseases, unless stated otherwise. Wheat leaf blotch and brown rust activity were also evaluated using track spray applications, in which case the fungicides were formulated as EC formulations, containing 0.1% Trycol 5941 in the spray solutions. Wheat plants (variety Yuma) were grown from seed in a greenhouse in 50% mineral soil/50% soil-less Metro mix until the first leaf was fully emerged, with 7-10 seedlings per pot. These plants were inoculated with an aqueous spore suspension of Zymoseptoria tritici either prior to or after fungicide treatments. After inoculation the plants were kept in 100% relative humidity (one day in a dark dew chamber followed by two to three days in a lighted dew chamber at 20° C.) to permit spores to germinate and infect the leaf. The plants were then transferred to a greenhouse set at 20° C. for disease to develop. When disease symptoms were fully expressed on the 1st leaves of untreated plants, infection levels were assessed on a scale of 0 to 100 percent disease severity. Percent disease control was calculated using the ratio of disease severity on treated plants relative to untreated plants.

The mark [1] stands for this setting: 24 h, 1 Day Protectant, read-out: PUCCRT 1DP disease control rating.
The mark [2] stands for this setting: 72 h, 3 Day Curative, read-out: PUCCRT 3DC disease control rating.
Setting [3] is: 24 h, 1 Day Protectant, read-out: SEPTTR 1DP disease control rating.
Where [4] appears, read: 72 h, 3 Day Curative, read-out: SEPTTR 3DC disease control rating.

For the compound `COc1ccnc(C(=O)N[C@@H](C)C(=O)O[C@@H](C)[C@H](Sc2cccc(Cl)c2)c2ccccc2)c1O` [Compound 35], the pest or weed control at 100 ppm in the assay on Puccinia triticina (setting [1]) is > 80%; with Puccinia triticina (setting [2]) it was > 80%; in the assay on Zymoseptoria tritici (setting [3]) it was ≤ 80%; with Zymoseptoria tritici (setting [4]) it was ≤ 80%.

With `COc1ccnc(C(=O)N[C@@H](C)C(=O)O[C@@H](C)[C@H](Sc2ccc(C)cc2)c2ccccc2)c1O` [Compound 36], the pest or weed control at 100 ppm is > 80% in the assay on Puccinia triticina (setting [1]), > 80% with Puccinia triticina (setting [2]), ≤ 80% in the assay on Zymoseptoria tritici (setting [3]) and ≤ 80% with Zymoseptoria tritici (setting [4]).

Take `COc1ccnc(C(=O)N[C@@H](C)C(=O)O[C@@H](C)[C@H](Sc2ccc(F)cc2)c2ccccc2)c1O` [Compound 37]: the pest or weed control at 100 ppm in the assay on Puccinia triticina (setting [1]) was ≤ 80%; in the assay on Puccinia triticina (setting [2]), ≤ 80%; in the assay with Zymoseptoria tritici (setting [3]), ≤ 0%; with Zymoseptoria tritici (setting [4]) it was ≤ 80%.

Regarding `COc1ccnc(C(=O)N[C@@H](C)C(=O)O[C@@H](C)[C@H](Sc2ccc(F)cc2C)c2ccccc2)c1O` [Compound 38], in the assay with Puccinia triticina (3 Day Curative), the “PUCCRT 3DC disease control rating” value is reported as “A (>80)”. Besides, the pest or weed control at 100 ppm in the assay on Puccinia triticina (setting [1]), in the assay on Zymoseptoria tritici (setting [3]) and in the assay with Zymoseptoria tritici (setting [4]) was > 80% each time.

With `COc1ccnc(C(=O)N[C@@H](C)C(=O)O[C@@H](C)[C@H](Sc2ccccc2)c2ccc(F)cc2)c1O` [Compound 39], the pest or weed control at 100 ppm in the assay with Puccinia triticina (setting [1]), in the assay on Puccinia triticina (setting [2]), in the assay with Zymoseptoria tritici (setting [3]) and in the assay with Zymoseptoria tritici (setting [4]) was > 80% each time.

`CCc1cc(F)ccc1[C@@H](Sc1ccccc1)[C@H](C)OC(=O)[C@H](C)NC(=O)c1nccc(OC)c1O` [Compound 40]: the “PUCCRT 3DC disease control rating” value in the assay with Puccinia triticina (3 Day Curative) is given as “A (>80)”. Moreover, the pest or weed control at 100 ppm in the assay on Puccinia triticina (setting [1]), with Zymoseptoria tritici (setting [3]) and with Zymoseptoria tritici (setting [4]) was > 80% each time.

For `COc1ccnc(C(=O)N[C@@H](C)C(=O)O[C@@H](C)[C@@H](c2ccccc2)S(=O)(=O)c2ccc(F)cc2)c1O` [Compound 41], the pest or weed control at 100 ppm in the assay with Puccinia triticina (setting [1]) is ≤ 0%; in the assay on Puccinia triticina (setting [2]) it was ≤ 0%; in the assay with Zymoseptoria tritici (setting [3]), ≤ 80%; with Zymoseptoria tritici (setting [4]), ≤ 80%.

As to `COc1ccnc(C(=O)N[C@@H](C)C(=O)O[C@@H](C)[C@@H](c2ccccc2)[S+]([O-])c2ccc(F)cc2)c1O` (some centres unmarked) [Compound 42], the pest or weed control at 100 ppm was ≤ 0% in the assay with Puccinia triticina (setting [1]), ≤ 0% in the assay with Puccinia triticina (setting [2]), ≤ 0% with Zymoseptoria tritici (setting [3]) and ≤ 80% in the assay with Zymoseptoria tritici (setting [4]).

Consider `COc1ccnc(C(=O)N[C@@H](C)C(=O)O[C@@H](C)[C@H](Sc2ccc(C)cc2C)c2ccccc2)c1O` [Compound 44], for which the pest or weed control at 100 ppm with Puccinia triticina (setting [1]) is > 80%; with Puccinia triticina (setting [2]), ≤ 80%; in the assay with Zymoseptoria tritici (setting [3]), > 80%; with Zymoseptoria tritici (setting [4]), ≤ 80%.

For `COc1ccnc(C(=O)N[C@@H](C)C(=O)O[C@@H](C)[C@H](SCc2ccccc2)c2ccccc2)c1O` [Compound 45], the pest or weed control at 100 ppm with Puccinia triticina (setting [1]) was ≤ 80%; in the assay on Puccinia triticina (setting [2]), ≤ 80%; in the assay on Zymoseptoria tritici (setting [3]), ≤ 0%; in the assay on Zymoseptoria tritici (setting [4]) it was ≤ 80%.

On to `COc1ccnc(C(=O)N[C@@H](C)C(=O)O[C@@H](C)[C@H](SC(C)C)c2ccccc2)c1O` [Compound 46], for which the pest or weed control at 100 ppm with Puccinia triticina (setting [1]) was ≤ 80%; in the assay on Puccinia triticina (setting [2]), ≤ 80%; in the assay on Zymoseptoria tritici (setting [3]) it was ≤ 0%; in the assay on Zymoseptoria tritici (setting [4]), > 80%.

`COc1ccnc(C(=O)N[C@@H](C)C(=O)O[C@@H](C)[C@H](SCC(C)C)c2ccccc2)c1O` [Compound 47]: the pest or weed control at 100 ppm with Puccinia triticina (setting [1]) was ≤ 80%; with Puccinia triticina (setting [2]), ≤ 80%; in the assay on Zymoseptoria tritici (setting [3]), ≤ 0%; in the assay on Zymoseptoria tritici (setting [4]), > 80%.

In the case of `COc1ccnc(C(=O)N[C@@H](C)C(=O)O[C@@H](C)[C@@H](c2ccccc2)S(=O)(=O)Cc2ccccc2)c1O` [Compound 48], the pest or weed control at 100 ppm was ≤ 0% in the assay with Puccinia triticina (setting [1]), ≤ 0% with Puccinia triticina (setting [2]), ≤ 80% in the assay with Zymoseptoria tritici (setting [3]) and ≤ 80% with Zymoseptoria tritici (setting [4]).

Consider `COc1ccnc(C(=O)N[C@@H](C)C(=O)O[C@@H](C)[C@H](Sc2ccc(F)cc2C)c2ccc(F)cc2C)c1O` [Compound 49], for which the pest or weed control at 100 ppm with Puccinia triticina (setting [1]) is > 80%; in the assay with Puccinia triticina (setting [2]), ≤ 80%; with Zymoseptoria tritici (setting [3]), > 80%; with Zymoseptoria tritici (setting [4]), > 80%.

Turning to `COc1ccnc(C(=O)N[C@@H](C)C(=O)O[C@@H](C)[C@H](Sc2ccccc2)c2ccc(F)cc2C)c1O` [Compound 51], the pest or weed control at 100 ppm is > 80% with Puccinia triticina (setting [1]), ≤ 80% in the assay with Puccinia triticina (setting [2]), > 80% in the assay with Zymoseptoria tritici (setting [3]) and > 80% in the assay with Zymoseptoria tritici (setting [4]).

As for `COc1ccnc(C(=O)N[C@@H](C)C(=O)O[C@@H](C)[C@H](Sc2ccc(C(F)(F)F)cn2)c2ccccc2)c1O` [Compound 52], the pest or weed control at 100 ppm is ≤ 80% in the assay on Puccinia triticina (setting [1]), ≤ 80% with Puccinia triticina (setting [2]), ≤ 0% in the assay with Zymoseptoria tritici (setting [3]) and ≤ 80% in the assay on Zymoseptoria tritici (setting [4]).

Turning to `COc1ccnc(C(=O)N[C@@H](C)C(=O)O[C@@H](C)[C@H](Sc2ccccc2)c2ccc(C)cc2)c1O` [Compound 53], the pest or weed control at 100 ppm with Puccinia triticina (setting [1]), in the assay on Puccinia triticina (setting [2]), with Zymoseptoria tritici (setting [3]) and with Zymoseptoria tritici (setting [4]) was > 80% throughout.

`COc1ccnc(C(=O)N[C@@H](C)C(=O)O[C@@H](C)[C@H](Sc2ccccc2)c2ccccc2)c1O` [Compound 54]: the pest or weed control at 100 ppm in the assay with Puccinia triticina (setting [1]) was > 80%; in the assay with Puccinia triticina (setting [2]) it was ≤ 80%; with Zymoseptoria tritici (setting [3]) it was ≤ 80%; in the assay on Zymoseptoria tritici (setting [4]) it was > 80%.

Take `COc1ccnc(C(=O)N[C@@H](C)C(=O)O[C@@H](C)[C@H](Sc2ccc(F)cc2C)c2ccccc2)c1O` [Compound 55]: the “PUCCRT 1DP disease control rating” value in the assay on Puccinia triticina (1 Day Protectant) is listed as “A (>80)”. Besides, in the assay with Puccinia triticina (3 Day Curative), the “PUCCRT 3DC disease control rating” value is on record as “D (≤0)”. In the assay with Zymoseptoria tritici (1 Day Protectant), the “SEPTTR 1DP disease control rating” value is recorded as “A (>80)”. Further, the “SEPTTR 3DC disease control rating” value in the assay on Zymoseptoria tritici (3 Day Curative) is listed as “B (≤80)”.

On to `CCc1cc(F)ccc1[C@@H](Sc1ccccc1)[C@H](C)OC(=O)[C@H](C)NC(=O)c1nccc(OC)c1O` [Compound 57], for which the “PUCCRT 1DP disease control rating” value in the assay on Puccinia triticina (1 Day Protectant) is given as “A (>80)”. Moreover, the “PUCCRT 3DC disease control rating” value in the assay with Puccinia triticina (3 Day Curative) is listed as “D (≤0)”. Moreover, in the assay on Zymoseptoria tritici (1 Day Protectant), the “SEPTTR 1DP disease control rating” value is recorded as “B (≤80)”. In addition, in the assay with Zymoseptoria tritici (3 Day Curative), the “SEPTTR 3DC disease control rating” value was “A (>80)”.

On to `CCc1cc(F)ccc1[C@@H](Sc1ccccc1)[C@H](C)OC(=O)[C@H](C)NC(=O)c1nccc(OC)c1OC(C)=O` [Compound 59], for which the pest or weed control at 121.5 g/ha was > 80% in the assay on Puccinia triticina (setting [1]), ≤ 80% in the assay with Puccinia triticina (setting [2]), ≤ 80% in the assay on Zymoseptoria tritici (setting [3]) and ≤ 80% in the assay on Zymoseptoria tritici (setting [4]).

Consider `COc1ccnc(C(=O)N[C@@H](C)C(=O)O[C@@H](C)[C@H](Sc2ccc(F)cc2C)c2ccccc2)c1OC(C)=O` [Compound 60], for which the pest or weed control at 121.5 g/ha with Puccinia triticina (setting [1]) was > 80%; in the assay with Puccinia triticina (setting [2]) it was ≤ 80%; in the assay on Zymoseptoria tritici (setting [3]), > 80%; with Zymoseptoria tritici (setting [4]) it was ≤ 0%.

For the compound `COc1ccnc(C(=O)N[C@@H](C)C(=O)O[C@@H](C)[C@H](Sc2ccccc2)c2ccc(F)cc2)c1OC(C)=O` [Compound 61], the pest or weed control at 121.5 g/ha in the assay with Puccinia triticina (setting [1]) is > 80%; in the assay on Puccinia triticina (setting [2]), ≤ 80%; in the assay with Zymoseptoria tritici (setting [3]) it was ≤ 80%; with Zymoseptoria tritici (setting [4]), ≤ 0%.
